# What was measured:
# [1] = test system: anesthetized rats; assay: Mean arterial pressure (MAP) and heart rate (HR) in anesthetized rats; type: in vivo, rat (Sprague-Dawley); conditions: nebivolol 3 mg/kg i.v.; L-NAME 3 mg/kg, ODQ 1 mg/kg, propranolol 1 mg/kg, sildenafil 0.3 mg/kg i.v.
# Protocol: To determine blood pressure and heart rate, Sprague-Dawley rats (250-400 g) were anesthetized with ketolar and diazepam. The right carotid artery was catheterized for constant blood pressure and heart rate measurement by means of a pressure transducer connected to a PowerLab data acquisition system (ADInstruments). The left external jugular vein was catheterized for saline or drug infusion. 3 mg/kg nebivolol (n=6) or vehicle (50% glycofurol; n=4) was administered intravenously in anesthetized rats and MAP and HR were measured. […] The effect of nebivolol in combination with the type 5 phosphodiesterase (PDE-5) inhibitor sildenafil on hypotension and heart rate was studied in rats using the methods described above.
# [2] = test system: cGMP in rat plasma; assay: Plasma cGMP content by ELISA; type: in vivo, rat (Sprague-Dawley); conditions: nebivolol 3 mg/kg i.v.; L-NAME 3 mg/kg, ODQ 1 mg/kg, propranolol 1 mg/kg
# Protocol: To determine the plasma cGMP content, Sprague-Dawley rats were anesthetized with urethane (1.25 g/kg). The right carotid artery was catheterized for constant blood pressure and heart rate measurement by means of a pressure transducer connected to a PowerLab data acquisition system (ADInstruments). The left external jugular vein was catheterized for saline or drug infusion. After administering the respective treatments, rat plasma samples were collected, immediately frozen and stored at −80° C. until extraction for cyclic nucleotide assay. cGMP was determined by ELISA using a kit from Cayman Chemical Co. Plasmatic cGMP levels were determined 10 minutes after nebivolol administration.
# [3] = test system: nitrite plus nitrate (NOx) in rat serum; assay: Serum nitrite plus nitrate (NOx) by Griess colorimetric method; type: in vivo; conditions: nebivolol 3 mg/kg i.v.; L-NAME 3 mg/kg, ODQ 1 mg/kg, propranolol 1 mg/kg, sildenafil 0.3 mg/kg
# Protocol: Total NO derivatives (nitrites plus nitrates) were measured in pre-filtered (10,000 MW pore size) serum samples from the studied rats by the Griess colorimetric method, using a commercial kit for nitrite and nitrate determination from Cayman Chemical Co. (Ann Arbor, Mich.). Serum concentrations of NOx were determined 10 minutes after nebivolol administration.
# [4] = test system: human penile resistance arteries (HPRA); assay: Relaxation of human penile resistance arteries contracted with U46619 (myograph); type: cell-based; design: effect on endothelium-dependent relaxation of HPRA caused by acetylcholine / effect on sildenafil-mediated relaxation of HPRA: unit of the concentration uncertain; conditions: metoprolol (1 (unit uncertain)), atenolol (1 (unit uncertain)), nebivolol (0.3 (unit uncertain))
# Protocol: Specimens of human corpus cavernosum were obtained from organ donors and from impotent men at the time of penile prosthesis implantation. Tissues were placed in ice-cold M-400 solution (pH 7.4; 400 mOsm/kg, composition in w/v: 4.19% manitol, 0.2% KH2PO4, 0.97% K2HPO4.3H2O, 0.11% KCl and 0.08% NaHCO3) at the time of removal and transported to the laboratory for utilization within 16 h.
# To determine the resistance of penile small arteries, helicine arteries (lumen diameter 150-400 μm) which are the terminal branches of deep penile arteries, were dissected by carefully removing the adhering trabecular tissue, and arterial ring segments (2 mm long) were subsequently mounted on two 40 μm wires on microvascular double Halpern-Mulvany myographs (J.P. Trading, Aarhus, Denmark) for isometric tension recordings. The chambers were filled with PSS continuously bubbled with 95% O2/5% CO2 mixture to maintain a pH of 7.4. […]
# [5] = test system: human corpus cavernosum (HCC) strips; assay: Relaxation of human corpus cavernosum strips contracted with U46619; type: cell-based; conditions: metoprolol 1 μM, atenolol 1 μM, nebivolol 0.3 μM
# Protocol: Specimens of human corpus cavernosum were obtained from organ donors and from impotent men at the time of penile prosthesis implantation. Tissues were placed in ice-cold M-400 solution (pH 7.4; 400 mOsm/kg, composition in w/v: 4.19% manitol, 0.2% KH2PO4, 0.97% K2HPO4.3H2O, 0.11% KCl and 0.08% NaHCO3) at the time of removal and transported to the laboratory for utilization within 16 h. Strips of human corpus cavemosum were mounted on force transducers in 8 ml organ baths (37° C.) containing physiological salt solution (PSS) continuously bubbled with 95% O2/5% CO2 mixture to maintain a pH of 7.4. Strips were contracted with the thromboxane receptor agonist U46619 (1-3 nM) and relaxation responses were evaluated by cumulative additions of compounds to the chambers.
smiles,measurement,setting,value
"COC(=O)[C@@H](N)CCCNC(=N)N[N+](=O)[O-] [L-NAME, Nω-nitro-L-arginine methyl ester]",effect on heart rate reduction caused by nebivolol,[1],did not affect
same,effect on hypotension caused by nebivolol,[1],significantly reduced
same,effect on nebivolol-induced increase in plasma cGMP,[2],slightly reduced
same,effect on nebivolol-induced increment in serum NOx,[3],prevents this effect
"O=c1onc2cnc3ccccc3n12 [ODQ, 1-H-(1,2,4)oxadiazolo(4,3-alpha)quinoxaline-1-one]",effect on heart rate reduction caused by nebivolol,[1],did not significantly modify
same,effect on hypotension caused by nebivolol,[1],did not significantly modify
same,effect on nebivolol-induced increase in plasma cGMP,[2],slightly reduced
same,effect on nebivolol-induced increment in serum NOx,[3],prevents this effect
COCCc1ccc(OCC(O)CNC(C)C)cc1 (stereo not shown) [metoprolol],effect on endothelium-dependent relaxation of HPRA caused by acetylcholine,[4],not affected
same,effect on acetylcholine-induced endothelium-dependent relaxation of HCC strips,[5],not significantly modified
CC(C)NCC(O)COc1cccc2ccccc12 (stereo not shown) [propranolol],effect on heart rate reduction caused by nebivolol,[1],significantly reduced the impact
same,effect on hypotension caused by nebivolol,[1],without affecting
same,effect on nebivolol-induced increase in plasma cGMP,[2],not influenced

# Source: patent US20090181975A1, “NEBIVOLOL IN THE TREATMENT OF SEXUAL DYSFUNCTION” (FOREST LABORATORIES HOLDINGS LIMITED, priority 2008, published 2009)
